Measured values reported in paper PMC7069095, “A cell-permeable peptide-based PROTAC against the oncoprotein CREPT proficiently inhibits pancreatic cancer” (Theranostics, 2020).
Entries after “also recorded” stand apart in the source; their conditions may differ. Non-standard residues stand in square brackets, D forms with d. Residues, ends and D or L forms follow the SMILES beside them. Hyp = O=C(O)[C@@H]1C[C@@H](O)CN1; Ahx = NCCCCCC(=O)O

Legend:
Panc-1 cells = experiment: Wound healing; type: cell-based; details: 10 μM for 24 h, FBS-free DMEM
Description: Cells were seeded in 6-well plates. Monolayer cells were scratched after culturing to obtain at least 95% confluence. Cells were washed with PBS and maintained in FBS-free DMEM and then treated with 10 μM PRTC and PRTC-m for 24 h. Migration distance was observed by microscopy and was measured by ImageJ from three individual experiments.

[1] = Circular dichroism (CD) spectroscopy; type: physicochemical; details: 0.1 mg/mL in deionized water, room temperature
Description: All peptides were dissolved in the deionized water at a final concentration of 0.1 mg/mL. The CD spectra were measured by using a 1 nm bandwidth with a 1 nm step resolution from 190 to 260 nm at room temperature (Jasco spectropolarimeter, Japan). Final spectra were obtained from the average of three parallel scans after subtracting a spectrum of deionized water recorded under the same conditions. Each sample was scanned thrice and the averaged spectrum was smoothed. The helicity were calculated by CDNN 2.1 [59], [60].

[2] = Body weight and toxicity in mice bearing xenograft tumors; type: in vivo, Balb/c nude mice; details: 10 mg/kg intraperitoneal, and HPDE6-C7 cells
Description: (§1) For the xenograft model, 5×10^6 wild-type Panc-1 cells or CREPT knockout Panc-1 cells were subcutaneously injected into 4-week-old female Balb/c nude mice, which were purchased from Beijing Vital River Laboratory Animal Technology Co., Ltd. Each experimental group consisted of five mice. Mice bearing tumors were randomly divided into two groups and administered via intraperitoneal injection control solvent (0.9% saline) or PRTC (dissolved in 0.9% saline, 10 mg/kg) every 2 days for 4 weeks. The body weight of mice were measured every week after treated with 0.9% saline or PRTC. Tumor volume was measured by using the formula V = (a × b^2)/2 (V is volume, a is the length of the tumor, b is the width of the tumor).

Panc-1 xenograft tumors = experiment: Xenograft tumor model; type: in vivo; details: female Balb/c nude mice, 10 mg/kg intraperitoneal every 2 days for 4 weeks, n=5, in comparison with control mice
Description: as §1

[3] = target: T1, endogenous CREPT protein in Panc-1 cells (Homo sapiens, UniProt Q9NQG5); experiment: Western blot of endogenous CREPT (degradation); type: cell-based
T1 construct: endogenous protein level of CREPT in Panc-1, AsPc-1 and MIA-PaCa-2 cells; endogenous in cells; host or cells: Panc-1, AsPc-1, MIA PaCa-2
T1 sequence (Q9NQG5 1-326): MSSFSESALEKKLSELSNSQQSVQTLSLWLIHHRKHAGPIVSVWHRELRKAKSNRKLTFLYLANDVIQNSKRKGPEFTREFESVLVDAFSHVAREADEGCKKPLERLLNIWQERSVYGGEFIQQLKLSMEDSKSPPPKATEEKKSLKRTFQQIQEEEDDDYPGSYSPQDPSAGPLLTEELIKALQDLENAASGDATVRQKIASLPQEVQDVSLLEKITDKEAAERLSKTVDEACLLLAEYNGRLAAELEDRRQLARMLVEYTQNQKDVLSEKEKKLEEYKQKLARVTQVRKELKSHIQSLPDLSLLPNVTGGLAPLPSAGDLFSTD
Description: (§2) For exogenous immunoprecipitation assays, HEK293T cells were plated in 60 mm dishes and then transfected with the indicated plasmids. After 24 h, cells were harvested using RIPA buffer (50 mM Tris-HCl pH 8.0, 2 mM EDTA pH 8.0, 150 mM NaCl, 1% NP-40, 0.5% sodium deoxycholate, 0.1% SDS) with mixed protease inhibitors. Cell lysates were incubated with 2 μg of the indicated antibodies and 30 μL of protein A/G-Sepharose beads at 4 °C overnight. Beads were eluted five times with lysis buffer (50 mM Tris-HCl pH 7.6, 1 mM EDTA pH 8.0, 165 mM NaCl, 0.5% NP-40), and thereafter, a western blot assay was performed to analyze the association by using the indicated antibodies. Western blot was performed as previously reported. Anti-β-actin and anti-Flag antibodies were purchased from Sigma. Anti-Myc antibody was purchased from Santa Cruz Biotechnology. Antibody against CREPT was produced in the laboratory.
To address whether PRTC could induce CREPT degradation, we examined the endogenous protein level of CREPT in Panc-1, AsPc-1 and MIA-PaCa-2 cells in the presence of different dosages of PRTC. […] Consistently, treatment with PRTC led to decreases in CREPT protein at different times (Figure 5B, S3A). […] To further visualize the degradation process, we stained the endogenous CREPT protein with an antibody against CREPT in the cells treated with FITC-labeled PRTC.
Figure 5 PRTC induces the ubiquitination and proteasome- dependent degradation of the endogenous CREPT protein. (A) Immunoblot of CREPT following 24 h incubation with different dosages of PRTC or PRTC-m in Panc-1 cells. (B) Immunoblot of CREPT exposed to 10 μM PRTC or PRTC-m for different times in Panc-1 cells. (C) Western blot analysis of CREPT following 24 h incubation with 10 μM PTRC in Panc-1 cells. MG132 is an inhibitor of proteasome activity. (D) Immunofluorescence visualization of Panc-1 cells after treatment with PRTC for 24 h. Cells were stained with anti-CREPT antibody. Scale bars, 20 μm.

[4] = target: T2, ubiquitinated CREPT in Panc-1 cells (Homo sapiens, UniProt Q9NQG5); experiment: Endogenous IP of CREPT with ubiquitin (Co-IP); type: cell-based; details: 10 μM peptide for 24 h
T2 construct: endogenous protein level of CREPT in Panc-1, AsPc-1 and MIA-PaCa-2 cells; endogenous in cells; host or cells: Panc-1, AsPc-1, MIA PaCa-2
T2 sequence (Q9NQG5 1-326): T1 sequence (Q9NQG5 1-326)
Description: as §2
In addition, a Co-IP experiment was performed in Panc-1 cells treated with 10 μM PRTC, PRTC-m or PRTC-v for 24 h. […] In the absence of MG132, the level of ubiquitinated CREPT was further increased by PRTC (Figure 6C, compare lane 1 and lane 2).
Figure 6 The degradation of CREPT by PRTC is dependent on its VHL ligand. (A) Immunoblot of CREPT following 24 h incubation with different dosages of PRTC or PRTC-v in Panc-1 cells. (B) Immunoblot of CREPT exposed to 10 μM PRTC or PRTC-v for different time points in Panc-1 cells. (C) Endogenous IP experiment of CREPT with ubiquitin treated with 10 μM PTRC, PTRC-m or PTRC-v in Panc-1 cells. IP: CREPT, IB: Anti-ubiquitin.

## CC[C@H](C)[C@H](N)C(=O)N[C@@H](Cc1ccc(O)cc1)C(=O)N1C[C@H](O)C[C@H]1C(=O)N[C@@H](C)C(=O)N[C@@H](CC(C)C)C(=O)NCCCCCC(=O)N[C@@H](CCCCN)C(=O)N[C@@H](CC(=O)O)C(=O)N[C@H](C(=O)N[C@@H](CC(C)C)C(=O)N[C@@H](CO)C(=O)N[C@@H](CCC(=O)O)C(=O)N[C@@H](CCCCN)C(=O)N[C@@H](CCC(=O)O)C(=O)N[C@@H](CCCCN)C(=O)N[C@@H](CCCCN)C(=O)N[C@@H](CC(C)C)C(=O)N[C@@H](CCC(=O)O)C(=O)N[C@@H](CCC(=O)O)C(=O)N[C@@H](Cc1ccc(O)cc1)C(=O)N[C@@H](CCCCN)C(=O)N[C@@H](CCC(N)=O)C(=O)N[C@@H](CCCCN)C(=O)N[C@@H](CC(C)C)C(=O)N[C@@H](C)C(=O)N[C@@H](CCCNC(=N)N)C(=O)N[C@H](C(=O)N[C@@H](CCCNC(=N)N)C(=O)N[C@@H](CCCNC(=N)N)C(=O)N[C@@H](CCCNC(=N)N)C(=O)N[C@@H](CCCNC(=N)N)C(=O)N[C@@H](CCCCN)C(=O)O)C(C)C)C(C)C [PRTC] (H-IY[Hyp]AL[Ahx]KDVLSEKEKKLEEYKQKLARVRRRRK-OH; N-terminus and C-terminus assumed)
Panc-1 cells
  cell movement (wound healing): decreased cell movement
[1]
  secondary structure by CD spectrum: α-helix structure
[1]; 190 to 260 nm, average of three scans, calculated by CDNN 2.1
  Helicity: 50.1%
[2]
  toxicity: relatively low; also recorded: no toxicity
Panc-1 xenograft tumors
  tumor weight and size: significantly decreases
[3]; 10 μM or 20 μM peptide
  CREPT protein level at different times: decreases
[3]; 24 h incubation
  CREPT protein level upon different dosages: dramatically decreased
[4]; Co-IP experiment
  CREPT protein level: significantly decreased
[4]; IP: CREPT, IB: anti-ubiquitin
  ubiquitinated CREPT proteins: increased
